Results as given in patent US12233140B2, “Hyperbranched polyglycerol-coated particles and methods of making and using thereof” (priority 2014, dated 2025).

Assays:
[1] = Retention of IR-780 loaded NPs in the peritoneal cavity after IP administration (live imaging); conditions: free dye control
Experimental: Six BALB/c nude mice were divided into 2 groups, 3 mice per group. […] Each mouse received 100 μL NP suspensions. The fluorescence was monitored with live imaging (Xenogen Corp., Alameda, CA) over time. The quantification of fluorescence retained in intraperitoneal cavity over time was determined.
Each mouse received 100 μL of the nanoparticle suspension at 10 mg/mL. The fluorescence was monitored with live imaging (Xenogen, Alameda, CA) over time.

[2] = system: uterine papillary serous carcinoma (UPSC) cells; assay: In vitro cytotoxicity on UPSC cells, 72 h (Cell Titer Blue); type: cell-based; conditions: 3 days
Experimental: UPSC cells (180 μL) were plated in each well of a 96 well plate at a density of 2,000/well and left in a 37° C. incubator overnight. […] The cells were incubated for 72 h and cell viability was quantified with Cell Titer Blue.

[3] = system: i.p. USC tumors (USC-ARK-2 xenografts); assay: Survival and body weight of nude mice bearing intraperitoneal USC tumors, IP treatment; type: in vivo
Experimental: Forty BALB/c Nude mice (5-6 weeks old, Charles River Laboratories) were intraperitoneally injected with 1×10^6 UPSC cells. After 1 week, drug treatments were started with PBS control, blank PLA-HPGALD control and 3 EB formulations. […] Treatments were administrated intraperitoneally with a dose of EB (0.5 mg/kg) every week for 5 weeks. The body weights of the mice were measured twice a week. Animals were euthanized when the body weight loss exceeded 20%, or when other signals of sickness, such as breathing problems, failure to eat and drink, lethargy or abnormal posture, were observed.
BALB/c Nude mice (5-6 weeks old, Charles River Laboratories) were intraperitoneally injected with 1×10^6 USC cells. After 1 week, drug treatments were started with 8 animals in each group. […] In this experiment, treatments were administrated intraperitoneally with a 2.5 mg/kg dose of EB every week for 3 weeks. In another experiment, five groups were compared as described in Example 11.
The body weights of the mice were measured as described in Example 11.

[4] = Retention profile of EB in peritoneal cavity after IP injection (HPLC); conditions: 6 hr after a single IP dose, EB 2.5 mg/kg
Experimental: C57BL/6 mice (5-6 weeks old, Charles River Laboratories) were divided into three groups with 9 mice per group and one group with 3 mice. The group with 3 mice was used as a vehicle control. […] At each time point (6 hr, 1 d and 3 d), 3 mice from each group and one mouse from the 3-animal vehicle control group were euthanized and the peritoneal cavities washed with 5 mL acetonitrile for 3 times. The acetonitrile samples were centrifuged and the supernatant was collected and processed for HPLC analysis. EB concentration was determined with HPLC with C18 column with methanol/water (7:3) with UV detector set at 240 nm absorbance.

| SMILES | time to complete clearance from the IP cavity [1] | in vitro cytotoxicity against UPSC cells [2] | animals surviving to 110 days ([3]; EB 0.5 mg/kg) | body weight ([3]; EB 2.5 mg/kg) | death due to toxicity ([3]; EB 2.5 mg/kg) | survival compared with PBS ([3]; EB 2.5 mg/kg IP weekly for 3 weeks) | toxicity (weight loss, diarrhea, bowel dilation) ([3]; FIG. 18B) | survival compared with PBS ([3]; five-group experiment, EB 0.5 mg/kg IP weekly for 5 weeks) | EB retained in the peritoneal cavity [4] |
| --- | --- | --- | --- | --- | --- | --- | --- | --- | --- |
| CCCN1C(=CC=C2CCCC(C=CC3=[N+](CCC)c4ccccc4C3(C)C)=C2Cl)C(C)(C)c2ccccc21.[I-] [Free dye, IR-780 iodide] | less than 4 hours | – | – | – | – | – | – | – | – |
| C/C(=C\c1csc(C)n1)[C@@H]1C[C@@H]2O[C@]2(C)CCC[C@H](C)[C@H](O)[C@@H](C)C(=O)C(C)(C)[C@@H](O)CC(=O)O1 [free EB, epothilone B] | – | highest toxicity | approximately 10% | weight loss | early death due to EB toxicity | only mice treated with the lower dosage showed significance | significant toxicity | showed significance | No EB was detected |
